Results taken from PubChem BioAssay (NCI).
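A five-concentration, 48-hour dose response in 96-well plates underlies each endpoint, interpolated linearly between surrounding concentrations. GI50 is the concentration that inhibits growth by half. TGI: concentration producing complete growth inhibition.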

Tests used:
Assay in all cases: inhibition of tumour cell growth, NCI panel, 48 h; in the data active = GI50 below about 0.43 µM; inactive = the rest
[1] = system: KM12 colon
[2] = system: UACC-257 melanoma
[3] = system: HL-60(TB) leukemia
[4] = system: NCI-H460 lung
[5] = system: DU-145 prostate
[6] = system: MDA-MB-435
[7] = system: SR leukemia
[8] = system: UO-31 renal
[9] = system: IGROV1 ovarian
[10] = system: SK-MEL-28 melanoma
[11] = system: MOLT-4 leukemia
[12] = system: EKVX NSCLC
[13] = system: RPMI-8226 leukemia
[14] = system: SF-539 CNS
[15] = system: HCT-116 colon
[16] = system: COLO 205 colon
[17] = system: K-562 leukemia
[18] = system: SK-MEL-2 melanoma
[19] = system: TK-10 renal
[20] = system: OVCAR-4 ovarian
[21] = system: CCRF-CEM leukemia
[22] = system: A549 NSCLC
[23] = system: ACHN renal
[24] = system: NCI-H522 lung
[25] = system: OVCAR-8 ovarian
[26] = system: SNB-19 CNS
[27] = system: BT-549 breast
[28] = system: OVCAR-3 ovarian
[29] = system: OVCAR-5 ovarian

C#CCCCN(CCNc1ccnc2cc(Cl)ccc12)C(=O)CCC(=O)O[C@@H]1O[C@@H]2OC3(C)CC[C@H]4[C@H](C)CC[C@@H]([C@H]1C)[C@@]24OO3
active: GI50 [3] 0.364 µM | GI50 [13] 0.399 µM
1.82 µM: TGI [3]
9.37 µM: TGI [7]
5.82 µM: TGI [11]
inactive: GI50 [1] 0.572 µM | GI50 [2] 2.3 µM | GI50 [4] 5.09 µM | GI50 [5] 8.95 µM | GI50 [6] 0.772 µM | GI50 [7] 0.475 µM | GI50 [8] 1.19 µM | GI50 [9] 3.01 µM | GI50 [10] 2.64 µM | GI50 [11] 0.527 µM | GI50 [12] 1.03 µM | GI50 [14] 3.99 µM | GI50 [15] 0.554 µM | GI50 [16] 1.39 µM | GI50 [17] 0.448 µM | GI50 [18] 4.93 µM | GI50 [19] 8.12 µM | GI50 [20] 1.39 µM | GI50 [21] 0.697 µM | GI50 [22] 7.37 µM | GI50 [23] 2.18 µM | GI50 [24] 0.788 µM | GI50 [25] 1.04 µM | GI50 [26] 7.16 µM | GI50 [27] 1.27 µM | GI50 [28] 0.876 µM | GI50 [29] 0.974 µM
> 11.5 µM: TGI [1] | TGI [2] | TGI [4] | TGI [5] | TGI [6] | TGI [8] | TGI [9] | TGI [10] | TGI [12] | TGI [13] | TGI [14] | TGI [15] | TGI [16] | TGI [17] | TGI [18] | TGI [19] | TGI [20] | TGI [21] | TGI [22] | TGI [23] | TGI [24] | TGI [25] | TGI [26] | TGI [27] | TGI [28] | TGI [29]
